# Measurements published in paper PMC8482815, “Targeting Host Glycolysis as a Strategy for Antimalarial Development” (Frontiers in Cellular and Infection Microbiology, 2021).
# Several values for one entry are separate records, joined by “and”; a condition that tells them apart may be missing. Equal values may be shown once.
# Test system: human erythrocytes
# Assay: Untargeted metabolomics and 13C-glucose tracing of enolase inhibitor treated erythrocytes
# Type: cell-based
# Conditions: 0.5h
# Description: Freshly collected erythrocytes were washed, resuspended to 10% hematocrit in buffer [25mM HEPES (pH 7.4), 120mM NaCl, 5.4mM KCl, 1.8mM CaCl2, and 1mM NaH2PO4], incubated for 1 hour at 37°C, then centrifuged at 2000xg for 5 minutes at 4°C, resuspended in fresh wash buffer to 30-40% hematocrit, and split into 210µL aliquots of packed erythrocytes. […] All samples were incubated at 37°C shaking at 500 RPM. Triplicate samples of supernatants and packed erythrocytes were collected at 0, 0.5, 1, and 6-hour intervals and snap-frozen in liquid N2.
# RBC and media samples were extracted at 1:10 and 1:20 dilutions, respectively, in 5:3:2 MeOH : MeCN:H2O v/v/v, and supernatants analyzed on a Thermo Vanquish UHPLC coupled to a Thermo Q Exactive mass spectrometer, as extensively described ([Nemkov et al., 2015]; [Nemkov et al., 2017]). The extraction buffer was supplemented with 40uM 3-^13C lactate to allow absolute quantification of lactate isotopologues, including lactate generated via glycolysis ([1,2,3-^13C3] enriched) vs. the pentose phosphate pathway ([2,3-^13C2] enriched), as described ([Reisz et al., 2016]). Metabolite assignments, peak area integration and isotopologues distributions were determined using Maven (Princeton University) ([Nemkov et al., 2015]; [Nemkov et al., 2017]).
# Data were auto-scaled and normalized to zero-hour time points. Metabolites were removed from the dataset if greater than 50% of the samples contained missing values or the relative standard deviation among replicates exceeded 25%. Additionally, data was filtered using the interquartile range to reduce near-constant values from the experiment by 5%.
# A principal component analysis of preprocessed data was plotted with the 95% confidence interval minimum volume enclosing ellipsoid for each respective group (MetaboAnalyst, cluster, plotly). A two-way repeated measures analysis of variance (ANOVA) was performed with multiple comparisons corrected for using a false discovery rate p-value cutoff of 0.05. Metabolite-Pathway analysis was performed using the R package of MetaboAnalyst, as previously described ([Xia and Wishart, 2010]). Metabolite-Protein nodal analysis was performed using omicsnet.ca and as previously described ([Zhou and Xia, 2018]).
# [1] = treated erythrocytes, one value per replicate sample, polarity +
# [2] = treated erythrocytes, one value per replicate sample, polarity -
# [3] = treated erythrocytes, replicate samples
compound,measurement,setting,value
CC(C)(C)C(=O)OCOP(=O)(OCOC(=O)C(C)(C)C)C1CC(O)N(O)C1=O (stereo not shown) [POMSF],AMP level (metabolomics signal),replicate samples,2.22E+06 and 1.69E+06 and 1.24E+06
same,ATP level (metabolomics signal),replicate samples,6.37E+03 and 8.43E+03 and 5.73E+03
same,Adenine level (metabolomics signal),replicate samples,1.92E+05 and 1.77E+05 and 1.67E+05
same,Cytosine level (metabolomics signal),replicate samples,5.62E+05 and 5.81E+05 and 5.75E+05
same,L-alanine level (metabolomics signal),replicate samples,8.49E+06 and 9.99E+06 and 1.01E+07
same,L-arginine level (metabolomics signal),replicate samples,8.18E+06 and 5.94E+06 and 8.91E+06
same,L-asparagine level (metabolomics signal),replicate samples,3.70E+06 and 4.01E+06 and 4.49E+06
same,L-aspartate level (metabolomics signal),replicate samples,3.38E+07 and 3.70E+07 and 4.18E+07
same,L-cysteine level (metabolomics signal),replicate samples,5.61E+05 and 2.55E+05 and 1.58E+05
same,L-glutamate level (metabolomics signal),replicate samples,3.26E+07 and 3.43E+07 and 3.68E+07
same,L-glutamine level (metabolomics signal),replicate samples,3.77E+07 and 4.04E+07 and 5.11E+07
same,L-histidine level (metabolomics signal),replicate samples,1.39E+06 and 1.38E+06 and 1.35E+06
same,L-isoleucine level (metabolomics signal),replicate samples,1.79E+07 and 1.67E+07 and 1.69E+07
same,L-leucine level (metabolomics signal),replicate samples,1.70E+08 and 1.83E+08 and 2.03E+08
same,L-lysine level (metabolomics signal),replicate samples,2.70E+06 and 2.39E+06 and 2.59E+06
same,L-methionine level (metabolomics signal),replicate samples,1.52E+07 and 1.66E+07 and 1.85E+07
same,L-phenylalanine level (metabolomics signal),replicate samples,8.08E+06 and 8.86E+06 and 1.12E+07
same,L-proline level (metabolomics signal),replicate samples,4.22E+07 and 3.45E+07 and 3.96E+07
same,L-serine level (metabolomics signal),replicate samples,2.93E+06 and 2.66E+06 and 3.79E+06
same,L-threonine level (metabolomics signal),replicate samples,5.71E+06 and 5.05E+06 and 5.98E+06
same,L-tryptophan level (metabolomics signal),replicate samples,5.93E+06 and 3.78E+06 and 4.71E+06
same,L-tyrosine level (metabolomics signal),replicate samples,1.94E+07 and 2.09E+07 and 2.16E+07
same,L-valine level (metabolomics signal),replicate samples,1.34E+08 and 1.45E+08 and 1.42E+08
same,dCMP level (metabolomics signal),replicate samples,1.87E+04 and 1.84E+04 and 1.76E+04
same,dTMP level (metabolomics signal),replicate samples,1.29E+06 and 8.42E+05 and 1.18E+06
same,glycine level (metabolomics signal),replicate samples,1.56E+06 and 1.61E+06 and 1.75E+06
same,N-Acyl-D-aspartate (C06380) metabolite signal,[1],2.47E+05 and 3.01E+05 and 2.50E+05
same,Poly-gamma-D-glutamate (C05723) metabolite signal,[1],2.49E+07 and 2.77E+07 and 3.43E+07
same,D-Ribitol 5-phosphate (C01068) metabolite signal,[2],1.89E+04 and 2.70E+04 and 1.78E+04
same,"D-glucono-1,5-lactone (C00198) metabolite signal",[2],5.20E+05 and 6.45E+05 and 5.70E+05
same,L-Noradrenaline (C00547) metabolite signal,[2],5.30E+04 and 6.26E+04 and 5.84E+04
same,Oxalosuccinate (C05379) metabolite signal,[2],1.60E+05 and 1.51E+05 and 1.30E+05
same,Pyridoxamine (C00534) metabolite signal,[2],4.35E+04 and 3.15E+04 and 3.96E+04
same,Thioredoxin disulfide (C00343) metabolite signal,[2],4.45E+04 and 2.53E+04 and 3.52E+04
same,1-4-beta-D-Xylan (metabolite signal),[3],2.42E+05 and 2.55E+05 and 2.51E+05
same,2-Hydroxyglutarate/Citramalate (C02630) metabolite signal,[3],8.78E+04 and 9.72E+04 and 1.18E+05
same,5-6-Dihydrothymine (C00906) metabolite signal,[3],3.10E+05 and 2.80E+05 and 2.87E+05
same,5-10-Methenyltetrahydrofolate (metabolite signal),[3],3.54E+05 and 4.17E+05 and 3.24E+05
same,5-Hydroxyisourate (C11821) metabolite signal,[3],5.17E+06 and 5.16E+06 and 5.68E+06
same,5-L-Glutamyl-taurine (metabolite signal),[3],1.45E+05 and 1.54E+05 and 1.36E+05
same,5-Oxoproline (metabolite signal),[3],8.54E+05 and 9.65E+05 and 9.67E+05
same,(S)(+)-Allantoin (C02350) metabolite signal,[3],4.35E+04 and 3.58E+04 and 0.00E+00
same,Allantoate (C00499) metabolite signal,[3],2.71E+05 and 2.04E+05 and 2.56E+05
same,Ascorbate (metabolite signal),[3],9.30E+04 and 6.85E+04 and 1.08E+05
same,CMP-N-acetylneuraminate (metabolite signal),[3],1.38E+04 and 2.26E+04 and 3.45E+04
same,Carnosine (metabolite signal),[3],2.64E+05 and 2.93E+05 and 2.91E+05
same,Citrate (C00158) metabolite signal,[3],2.63E+04 and 3.23E+04 and 3.56E+04
same,Creatine (metabolite signal),[3],2.99E+08 and 3.28E+08 and 3.02E+08
same,Creatinine (metabolite signal),[3],3.46E+06 and 3.25E+06 and 2.95E+06
same,Cys-Gly (metabolite signal),[3],2.55E+06 and 2.28E+06 and 2.13E+06
same,D-Glucosamine (metabolite signal),[3],1.73E+05 and 2.02E+05 and 1.88E+05
same,D-Glucose (C00031) metabolite signal,[3],6.07E+06 and 5.64E+06 and 6.25E+06
same,D-Ribose (C00121) metabolite signal,[3],1.75E+05 and 2.10E+05 and 1.84E+05
same,Dehydroascorbate (metabolite signal),[3],1.78E+04 and 9.28E+03 and 1.77E+04
same,Dihydrofolate (metabolite signal),[3],1.24E+06 and 6.72E+05 and 1.27E+06
same,Dimethylglycine (metabolite signal),[3],1.14E+06 and 1.17E+06 and 1.06E+06
same,Diphosphate (C00013) metabolite signal,[3],3.26E+03 and 1.34E+03 and 1.52E+03
same,Fumarate (C00122) metabolite signal,[3],1.08E+05 and 1.33E+05 and 1.27E+05
same,Glutathione (C00051) metabolite signal,[3],1.64E+08 and 1.52E+08 and 1.45E+08
same,Glutathione disulfide (metabolite signal),[3],1.36E+05 and 2.52E+05 and 3.91E+05
same,Hypoxanthine (C00262) metabolite signal,[3],6.53E+04 and 4.36E+04 and 3.66E+04
same,IMP (C00130) metabolite signal,[3],9.13E+04 and 0.00E+00 and 4.11E+04
same,Inosine (C00294) metabolite signal,[3],9.07E+04 and 1.09E+05 and 1.15E+05
same,L-Citrulline (metabolite signal),[3],3.18E+06 and 3.52E+06 and 3.48E+06
same,L-Homoserine (metabolite signal),[3],2.14E+05 and 2.01E+05 and 2.23E+05
same,Lactate (C01432) metabolite signal,[3],9.04E+06 and 8.73E+06 and 8.57E+06
same,Malate (C00149) metabolite signal,[3],1.84E+05 and 2.15E+05 and 2.30E+05
same,Mannitol (C00392) metabolite signal,[3],1.48E+05 and 1.43E+05 and 1.44E+05
same,N-Acetylneuraminate (metabolite signal),[3],2.84E+04 and 2.76E+04 and 2.63E+04
same,N-Glycoloyl-neuraminate (metabolite signal),[3],1.80E+05 and 1.43E+05 and 1.72E+05
same,NAD+ (C00003) metabolite signal,[3],7.76E+04 and 1.99E+05 and 4.14E+05
same,Nicotinamide (C00153) metabolite signal,[3],3.69E+07 and 3.94E+07 and 3.72E+07
same,Ornithine (metabolite signal),[3],2.34E+06 (2×) and 2.32E+06
same,Oxaloacetate (C00036) metabolite signal,[3],4.10E+04 and 3.82E+04 and 3.53E+04
same,Phosphoserine (metabolite signal),[3],5.43E+04 and 2.60E+05 and 7.13E+04
same,Putrescine (metabolite signal),[3],8.30E+04 and 7.12E+04 and 6.80E+04
same,Pyridoxal (C00250) metabolite signal,[3],7.95E+04 and 8.76E+04 and 8.42E+04
same,Pyruvate (C00022) metabolite signal,[3],6.67E+05 and 7.32E+05 and 6.75E+05
same,S-Glutathionyl-L-cysteine (metabolite signal),[3],6.44E+04 and 8.58E+04 and 2.21E+05
same,Sedoheptulose 1-phosphate (C06222) metabolite signal,[3],1.56E+04 and 1.68E+04 and 1.80E+04
same,Spermidine (metabolite signal),[3],9.65E+06 and 9.19E+06 and 9.18E+06
same,Spermine (metabolite signal),[3],9.74E+06 and 8.90E+06 and 1.00E+07
same,Succinate (C00042) metabolite signal,[3],9.57E+04 and 9.51E+04 and 9.45E+04
same,Thymidine (C00214) metabolite signal,[3],1.34E+04 and 1.17E+04 and 1.87E+04
same,UDP (C00015) metabolite signal,[3],2.09E+05 and 1.18E+05 and 1.38E+05
same,UDP-N-acetyl-D-glucosamine (metabolite signal),[3],1.55E+04 and 2.01E+04 and 2.26E+04
same,UDP-glucose (C00029) metabolite signal,[3],3.09E+04 and 3.55E+04 and 4.15E+04
same,Urate (C00366) metabolite signal,[3],3.51E+04 and 2.72E+04 and 2.68E+04
same,Xanthine (C00385) metabolite signal,[3],3.66E+05 and 3.57E+05 and 3.29E+05
same,alpha-D-Glucosamine 1-phosphate (metabolite signal),[3],2.09E+06 and 2.40E+06 and 2.18E+06
same,alpha-D-Ribose 1-phosphate (C00620) metabolite signal,[3],1.08E+05 and 8.84E+04 and 1.07E+05
same,gamma-Glutamyl-gamma-aminobutyrate (metabolite signal),[3],9.93E+04 and 1.32E+05 and 1.00E+05
same,gamma-L-Glutamyl-D-alanine (metabolite signal),[3],3.99E+04 and 3.09E+04 and 3.31E+04
same,gamma-L-Glutamyl-L-cysteine (metabolite signal),[3],1.39E+04 and 2.39E+04 and 2.36E+04
